pIC50: −log10 of the molar value. Positions of bridges follow the written chain, without caps; N, C: chain ends. Residues, ends and D or L forms follow the SMILES beside them.
Target: hNav1.7 (Homo sapiens, UniProt Q15858)
Assay: cell-based
Format: cell-based
Conditions: IonWorks Quattro, Use; read-out: IWQ Use Nav1.7

Sequence of hNav1.7 (Q15858 whole entry, looked up): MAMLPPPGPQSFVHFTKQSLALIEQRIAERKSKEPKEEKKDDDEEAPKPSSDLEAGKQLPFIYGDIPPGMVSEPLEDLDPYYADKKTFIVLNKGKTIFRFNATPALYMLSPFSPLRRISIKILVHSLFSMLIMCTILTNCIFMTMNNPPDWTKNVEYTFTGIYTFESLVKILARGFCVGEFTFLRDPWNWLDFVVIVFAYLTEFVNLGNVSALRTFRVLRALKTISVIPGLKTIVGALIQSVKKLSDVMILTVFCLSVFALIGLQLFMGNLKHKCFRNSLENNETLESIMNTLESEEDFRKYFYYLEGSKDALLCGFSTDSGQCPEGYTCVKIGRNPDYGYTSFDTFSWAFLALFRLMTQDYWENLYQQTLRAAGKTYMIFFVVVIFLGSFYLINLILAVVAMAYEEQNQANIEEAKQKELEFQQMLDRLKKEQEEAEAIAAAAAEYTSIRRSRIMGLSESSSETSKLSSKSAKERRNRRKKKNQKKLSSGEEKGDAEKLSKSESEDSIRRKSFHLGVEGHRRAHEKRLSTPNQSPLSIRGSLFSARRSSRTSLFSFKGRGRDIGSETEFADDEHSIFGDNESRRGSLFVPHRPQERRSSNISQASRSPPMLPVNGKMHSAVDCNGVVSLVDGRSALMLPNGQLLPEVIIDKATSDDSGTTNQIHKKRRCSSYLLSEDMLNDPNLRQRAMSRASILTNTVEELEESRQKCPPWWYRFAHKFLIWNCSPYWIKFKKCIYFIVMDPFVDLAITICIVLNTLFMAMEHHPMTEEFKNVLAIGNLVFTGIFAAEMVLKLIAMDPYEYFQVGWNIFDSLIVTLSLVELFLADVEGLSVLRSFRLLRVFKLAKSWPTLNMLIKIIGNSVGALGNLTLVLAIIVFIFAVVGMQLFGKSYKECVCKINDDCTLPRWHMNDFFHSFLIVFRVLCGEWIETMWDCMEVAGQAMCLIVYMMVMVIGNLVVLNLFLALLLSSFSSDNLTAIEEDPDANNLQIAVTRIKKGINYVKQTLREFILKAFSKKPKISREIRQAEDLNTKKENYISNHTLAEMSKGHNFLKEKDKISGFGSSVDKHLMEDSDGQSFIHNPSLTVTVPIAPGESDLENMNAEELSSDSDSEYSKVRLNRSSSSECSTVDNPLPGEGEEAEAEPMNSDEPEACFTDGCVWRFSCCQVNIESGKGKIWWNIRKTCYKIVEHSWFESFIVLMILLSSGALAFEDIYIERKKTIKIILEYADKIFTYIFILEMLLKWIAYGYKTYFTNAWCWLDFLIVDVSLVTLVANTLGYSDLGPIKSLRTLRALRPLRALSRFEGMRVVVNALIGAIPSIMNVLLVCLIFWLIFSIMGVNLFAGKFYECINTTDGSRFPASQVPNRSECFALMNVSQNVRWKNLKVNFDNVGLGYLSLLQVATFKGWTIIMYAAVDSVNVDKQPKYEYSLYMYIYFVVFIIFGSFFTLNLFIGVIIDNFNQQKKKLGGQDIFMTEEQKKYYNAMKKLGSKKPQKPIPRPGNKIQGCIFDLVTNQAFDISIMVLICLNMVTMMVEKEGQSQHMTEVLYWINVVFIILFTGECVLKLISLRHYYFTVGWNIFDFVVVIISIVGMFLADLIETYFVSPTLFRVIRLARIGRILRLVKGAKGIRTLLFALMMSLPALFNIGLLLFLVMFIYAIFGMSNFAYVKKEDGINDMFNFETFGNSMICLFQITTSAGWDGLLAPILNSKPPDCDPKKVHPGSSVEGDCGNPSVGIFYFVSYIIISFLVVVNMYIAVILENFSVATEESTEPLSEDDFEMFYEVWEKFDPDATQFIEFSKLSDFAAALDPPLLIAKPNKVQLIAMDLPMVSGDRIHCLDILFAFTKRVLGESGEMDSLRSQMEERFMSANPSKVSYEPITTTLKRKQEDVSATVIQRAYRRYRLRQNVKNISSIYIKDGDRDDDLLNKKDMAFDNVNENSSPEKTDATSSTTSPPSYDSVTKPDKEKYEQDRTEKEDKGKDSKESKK

Question: How did the pIC50 turn out when CSCC[C@@H]1NC(=O)[C@H](Cc2ccccc2)NC(=O)CNC(=O)[C@H](CC(C)C)NC(=O)[C@@H](NC(=O)[C@@H](N)CC(=O)O)CSSC[C@@H]2NC(=O)[C@@H]3CSSC[C@@H](C(=O)N[C@@H](CCCCN)C(=O)N[C@@H](Cc4ccc(O)cc4)C(=O)N[C@H](C(=O)N[C@@H](Cc4ccccc4)C(N)=O)C(C)C)NC(=O)[C@H](Cc4c[nH]c5ccccc45)NC(=O)[C@H](CCCCN)NC(=O)[C@H](Cc4c[nH]cn4)NC(=O)[C@H]([C@@H](C)O)NC(=O)[C@H](CCCNC(=N)N)NC(=O)[C@H](CO)NC(=O)[C@H](CSSC[C@H](NC(=O)[C@H](CCCCN)NC(=O)[C@H](CCCNC(=N)N)NC1=O)C(=O)N[C@@H](Cc1ccccc1)C(=O)N1CCC[C@H]1C(=O)N[C@@H](CC(=O)O)C(=O)N[C@@H](CC(N)=O)C(=O)N[C@@H](CC(=O)O)C(=O)N[C@@H](CCCCN)C(=O)N3)NC(=O)[C@H](C(C)C)NC(=O)[C@H](CC(C)C)NC(=O)[C@H](CC(N)=O)NC(=O)[C@@H]1CCCN1C(=O)[C@H](CCCNC(=N)N)NC2=O [compound 302] (H-DCLGFMRKCFPDNDKCCRPNLVCSRTHKWCKYVF-NH2; disulfide 2-17, 9-23, 16-30) was run?
Answer: 6.96

Question: With CSCC[C@@H]1NC(=O)[C@H](Cc2ccccc2)NC(=O)CNC(=O)[C@H](CC(C)C)NC(=O)[C@@H](NC(=O)[C@@H](N)CC(=O)O)CSSC[C@@H]2NC(=O)[C@@H]3CSSC[C@@H](C(=O)N[C@@H](CCCCN)C(=O)N[C@@H](Cc4ccc(O)cc4)C(=O)N[C@H](C(=O)N[C@@H](Cc4ccccc4)C(N)=O)C(C)C)NC(=O)[C@H](Cc4c[nH]c5ccccc45)NC(=O)[C@H](CCCCN)NC(=O)[C@H](Cc4c[nH]cn4)NC(=O)[C@H]([C@@H](C)O)NC(=O)[C@H](CCCNC(=N)N)NC(=O)[C@H](CO)NC(=O)[C@H](CSSC[C@H](NC(=O)[C@H](CCCCN)NC(=O)[C@H](CCCNC(=N)N)NC1=O)C(=O)N[C@@H]([C@@H](C)O)C(=O)N1CCC[C@H]1C(=O)N[C@@H](CC(=O)O)C(=O)N[C@@H](CC(N)=O)C(=O)N[C@@H](CC(=O)O)C(=O)N[C@@H](CCCCN)C(=O)N3)NC(=O)[C@H](C(C)C)NC(=O)[C@H](CC(C)C)NC(=O)[C@H](CC(N)=O)NC(=O)[C@@H]1CCCN1C(=O)[C@H](CCCNC(=N)N)NC2=O [compound 309] (H-DCLGFMRKCTPDNDKCCRPNLVCSRTHKWCKYVF-NH2; disulfide 2-17, 9-23, 16-30) as the compound, how does the pIC50 read?
Answer: 7.00

Question: With CC[C@H](C)[C@@H]1NC(=O)[C@@H]2CSSC[C@@H]3NC(=O)[C@H](C(C)C)NC(=O)[C@H](CC(C)C)NC(=O)[C@H](CC(N)=O)NC(=O)[C@@H]4CCCN4C(=O)[C@H](CCCNC(=N)N)NC(=O)[C@H](CSSC[C@H](NC(=O)[C@@H](N)CC(=O)O)C(=O)N[C@@H](CC(C)C)C(=O)NCC(=O)N[C@@H](Cc4ccccc4)C(=O)N[C@@H](CCSC)C(=O)N[C@@H](CCCNC(=N)N)C(=O)N[C@@H](CCCCN)C(=O)N2)NC(=O)[C@H](CSSC[C@@H](C(=O)N[C@@H](CCCCN)C(=O)N[C@@H](Cc2ccc(O)cc2)C(=O)N[C@H](C(=O)N[C@@H](Cc2ccccc2)C(N)=O)C(C)C)NC(=O)[C@H](Cc2c[nH]c4ccccc24)NC(=O)[C@H](CCCCN)NC(=O)[C@H](Cc2c[nH]cn2)NC(=O)[C@H]([C@@H](C)O)NC(=O)[C@H](CCCCN)NC(=O)[C@H](CO)NC3=O)NC(=O)[C@H](CCCCN)NC(=O)[C@H](CC(=O)O)NC(=O)[C@H](CC(N)=O)NC(=O)[C@H](CC(=O)O)NC(=O)[C@@H]2CCCN2C1=O [compound 53] (H-DCLGFMRKCIPDNDKCCRPNLVCSKTHKWCKYVF-NH2; disulfide 2-17, 9-23, 16-30) as the compound, how does the pIC50 read?
Answer: 6.42

Question: How did the pIC50 turn out when CC[C@H](C)[C@@H]1NC(=O)[C@@H]2CSSC[C@@H]3NC(=O)[C@H](C(C)C)NC(=O)[C@H](CC(C)C)NC(=O)[C@H](CC(N)=O)NC(=O)[C@@H]4CCCN4C(=O)[C@H](CCCNC(=N)N)NC(=O)[C@H](CSSC[C@H](NC(=O)[C@@H](N)CC(=O)O)C(=O)N[C@@H](CC(C)C)C(=O)NCC(=O)N[C@@H](Cc4ccccc4)C(=O)N[C@@H](CCSC)C(=O)N[C@@H](CCCNC(=N)N)C(=O)N[C@@H](CCCCN)C(=O)N2)NC(=O)[C@H](CSSC[C@@H](C(=O)N[C@@H](CCCCN)C(=O)N[C@@H](Cc2ccc(O)cc2)C(=O)N[C@H](C(=O)N[C@@H](Cc2ccccc2)C(N)=O)C(C)C)NC(=O)[C@H](Cc2c[nH]c4ccccc24)NC(=O)[C@H](CCCCN)NC(=O)[C@H](Cc2c[nH]cn2)NC(=O)[C@H]([C@@H](C)O)NC(=O)[C@H](CCCNC(=N)N)NC(=O)[C@H](CO)NC3=O)NC(=O)[C@H](CCCCN)NC(=O)[C@H](CC(=O)O)NC(=O)[C@H](CCCCN)NC(=O)[C@H](CC(=O)O)NC(=O)[C@@H]2CCCN2C1=O [compound 48] (H-DCLGFMRKCIPDKDKCCRPNLVCSRTHKWCKYVF-NH2; disulfide 2-17, 9-23, 16-30) was run?
Answer: 6.68

Question: How did the pIC50 turn out when CC[C@H](C)[C@@H]1NC(=O)[C@@H]2CSSC[C@@H]3NC(=O)[C@H](C(C)C)NC(=O)[C@H](CC(C)C)NC(=O)[C@H](CC(N)=O)NC(=O)[C@@H]4CCCN4C(=O)[C@H](CCCNC(=N)N)NC(=O)[C@H](CSSC[C@H](NC(=O)[C@@H](N)CC(=O)O)C(=O)N[C@@H](CC(C)C)C(=O)NCC(=O)N[C@@H](Cc4ccccc4)C(=O)N[C@@H](CCSC)C(=O)N[C@@H](CCCNC(=N)N)C(=O)N[C@@H](CCCCN)C(=O)N2)NC(=O)[C@H](CSSC[C@@H](C(=O)N[C@@H](CCCCN)C(=O)N[C@@H](Cc2ccc(O)cc2)C(=O)N[C@H](C(=O)N[C@@H](Cc2ccccc2)C(N)=O)C(C)C)NC(=O)[C@H](Cc2c[nH]c4ccccc24)NC(=O)[C@H](CCCCN)NC(=O)[C@H](Cc2c[nH]cn2)NC(=O)[C@H]([C@@H](C)O)NC(=O)[C@H](CCCNC(=N)N)NC(=O)[C@H](CO)NC3=O)NC(=O)[C@H](CCCCN)NC(=O)[C@H](CC(=O)O)NC(=O)[C@H](CC(N)=O)NC(=O)[C@H](CC(=O)O)NC(=O)[C@H](CCC(=O)O)NC1=O [SEQ ID NO: 147, [Glu11]GpTx-1] (H-DCLGFMRKCIEDNDKCCRPNLVCSRTHKWCKYVF-NH2; disulfide 2-17, 9-23, 16-30) was run?
Answer: 6.66

Same assay, conditions: read-out: IWQ Use Nav1.7

Question: How did the pIC50 turn out when CC[C@H](C)[C@@H]1NC(=O)[C@@H]2CSSC[C@@H]3NC(=O)[C@H](C(C)C)NC(=O)[C@H](CC(C)C)NC(=O)[C@H](CC(N)=O)NC(=O)[C@@H]4CCCN4C(=O)[C@H](CCCNC(=N)N)NC(=O)[C@H](CSSC[C@H](NC(=O)[C@@H](N)CC(=O)O)C(=O)N[C@@H](CC(C)C)C(=O)NCC(=O)N[C@@H](Cc4ccccc4)C(=O)N[C@@H](CCSC)C(=O)N[C@@H](CCCNC(=N)N)C(=O)N[C@@H](CCC(=O)O)C(=O)N2)NC(=O)[C@H](CSSC[C@@H](C(=O)N[C@@H](CCCCN)C(=O)N[C@@H](Cc2ccc(O)cc2)C(=O)N[C@H](C(=O)N[C@@H](Cc2ccccc2)C(N)=O)C(C)C)NC(=O)[C@H](Cc2c[nH]c4ccccc24)NC(=O)[C@H](CCCCN)NC(=O)[C@H](Cc2c[nH]cn2)NC(=O)[C@H]([C@@H](C)O)NC(=O)[C@H](CCCNC(=N)N)NC(=O)[C@H](CO)NC3=O)NC(=O)[C@H](CCCCN)NC(=O)[C@H](CC(=O)O)NC(=O)[C@H](CC(N)=O)NC(=O)[C@H](CC(=O)O)NC(=O)[C@@H]2CCCN2C1=O [[Glu8]GpTx-1(1-34)] (H-DCLGFMRECIPDNDKCCRPNLVCSRTHKWCKYVF-NH2; disulfide 2-17, 9-23, 16-30) was run?
Answer: 5.77
